Test results: patent publication EP4745153A1, “GLP-1, GIP AND GCG RECEPTOR […] USE THEREOF” (Jiangsu Hengrui Pharmaceuticals Co., Ltd., priority 2023, dated 2025)
Where two headings read alike, the source gives them in different places. Starred links: 1 amine or outer side, 2 acyl side, 3 side chain; linkers in the order of their positions; H or OH if unused. Non-standard residues stand in square brackets, D forms with d. Residues, ends and D or L forms follow the SMILES beside them. Groups on a side chain read outwards from the residue. ξ: configuration not given here. *: point of attachment. C20 diacid = O=C(O)CCCCCCCCCCCCCCCCCCC(=O)*; γGlu = O=C(O)[C@H](CCC(=O)[*:2])N[*:1]; αMeK = C[C@](N)(CCCCN)C(=O)O; ξIva = CCC(C)(N)C(=O)O; AEEA = NCCOCCOCC(=O)O; Aib = CC(C)(N)C(=O)O

Legend:
human GIPR = target: T1, human GIPR (Homo sapiens, UniProt P48546); assay: cAMP HTRF agonist activity assay in CHO-K1 cells expressing GIPR; assay type: cell-based; conditions: read-out: Activity against human GIPR (EC50 nM); also: 5% FBS, 0.1% Casein
T1 construct: expressed in transfected cells; host or cells: CHO-K1 clonal cell line
T1 sequence (P48546 22-466): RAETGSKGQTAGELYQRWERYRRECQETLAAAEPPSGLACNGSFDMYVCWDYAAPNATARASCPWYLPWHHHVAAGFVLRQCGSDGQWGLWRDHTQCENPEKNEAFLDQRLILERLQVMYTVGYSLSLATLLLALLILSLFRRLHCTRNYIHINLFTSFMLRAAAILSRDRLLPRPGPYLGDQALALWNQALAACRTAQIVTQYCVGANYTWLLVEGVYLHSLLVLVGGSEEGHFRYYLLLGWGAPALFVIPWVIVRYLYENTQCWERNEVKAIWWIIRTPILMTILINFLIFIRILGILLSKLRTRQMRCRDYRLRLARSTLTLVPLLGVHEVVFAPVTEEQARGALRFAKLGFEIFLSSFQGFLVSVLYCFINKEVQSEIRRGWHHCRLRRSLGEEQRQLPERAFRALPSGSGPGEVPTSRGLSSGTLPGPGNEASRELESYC
Description: Functional activity was determined in CHO-K1 clonal cell lines expressing GIPR, GLP-1R, and GCGR. […] Each recipient cell (5000 cells/well) was added to an SV 96-well plate (Cisbio, 66PL96025) and incubated with the prepared polypeptide at 37°Cfor 30 min. The resulting increase in intracellular cAMP was quantitatively measured using the cAMP-GS dynamic HTRF assay kit (Cisbio, 62AM4PEJ). Briefly, the intracellular cAMP levels were determined by adding cAMP-d2 conjugate in cell lysis buffer, followed by the antibody anti-cAMP-Eu cryptate (also in cell lysis buffer).
Using the maximum response percentage vs. the added polypeptide concentration, the relative EC50 values were derived through nonlinear regression analysis and fitted to a four-parameter logarithmic equation. For specific data, refer to Tables 7-1 to 7-8 below. […]

[1] = Pharmacokinetics in mice after single intravenous injection; design: species or system C57 mice; conditions: in vivo
Description: Male C57 mice were used as test animals. The target compound was administered via a single intravenous injection, and the pharmacokinetic characteristics of the compound in C57 mice in vivo (plasma) were determined.
Male C57 mice, weighing approximately 25g, aged 4-6 weeks. After preparing the polypeptide compound solution using 1×PBS dissolving solution, the compound was administered intravenously at a dose of 200 nmol/kg, where each compound was administered to 3 animals. Blood samples of 60 µL were collected at 5 min, 15 min, 0.5 h, 1 h, 2 h, 4 h, 6 h, 24 h, 48 h and 72 h after the infusion was completed and transferred to centrifuge tubes containing EDTA-K2 anticoagulant. Whole blood samples were centrifuged at 4000 g for 5 min at 4°C. Plasma was separated and plasma samples were frozen and stored at -80 °C.
Sample pretreatment method: 30 µL of plasma samples was taken, and 120 µL of 0.1% formic acid in methanol containing 1 ng/mL internal standard verapamil was added. The mixture was vortexed for 5 min, and centrifuged at 10000 rpm for 10 min at low temperature. 70 µL of supernatant was taken, and 70 µL of water was added and mixed well. Analysis was performed by LC-MS instrument.
LC-MS analysis method: (1) chromatographic conditions: mobile phases A and B: 0.1% formic acid in water and 0.1% formic acid in acetonitrile, respectively; gradient elution mode; flow rate: 0.5 mL/min; injection volume: 10 µL; chromatographic column: nanomicro Unisil C18aq (4.6 mm × 150 mm, 5 µm); column temperature: 40°C. (2) Mass spectrometry conditions: For mass spectrometry, an electrospray ionization source (ESI), positive ion analysis mode, and multiple reaction monitoring (MRM) scanning mode were used.
For data processing, SCIEX OS (Version 2.1.6) software was used to quantify blood drug concentration data and PKSolver (Version 2.0) software was used to calculate pharmacokinetic parameters.

[2] = mouse, male C57 mice, single intravenous dose 200 nmol/kg, plasma

SMILES: CC[C@H](C)[C@H](NC(=O)[C@H](CO)NC(=O)[C@H](Cc1ccc(O)cc1)NC(=O)[C@H](CC(=O)O)NC(=O)[C@H](CO)NC(=O)[C@@H](NC(=O)[C@H](Cc1ccccc1)NC(=O)[C@@H](NC(=O)CNC(=O)[C@H](Cc1c[nH]cn1)NC(=O)C(C)(C)NC(=O)[C@@H](N)Cc1c[nH]cn1)[C@@H](C)O)[C@@H](C)O)C(=O)N[C@@H](CC(C)C)C(=O)N[C@@H](CC(C)C)C(=O)N[C@@H](CCC(=O)O)C(=O)N[C@@H](CCCCNC(=O)COCCOCCNC(=O)COCCOCCNC(=O)CC[C@H](NC(=O)CCCCCCCCCCCCCCCCCCC(=O)O)C(=O)O)C(=O)N[C@@H](CCC(N)=O)C(=O)N[C@@H](C)C(=O)N[C@@H](C)C(=O)NC1(C(=O)N[C@@H](CCC(=O)O)C(=O)N[C@@H](Cc2ccccc2)C(=O)N[C@H](C(=O)N[C@@H](CCC(=O)O)C(=O)N[C@@H](Cc2c[nH]c3ccccc23)C(=O)N[C@@H](CC(C)C)C(=O)N[C@@H](CC(C)C)C(=O)N[C@@H](C)C(=O)N[C@H](CCC(=O)O)C(=O)NCC(=O)N2CCC[C@H]2C(=O)N[C@@H](CO)C(=O)N[C@@H](CO)C(=O)NCC(=O)N[C@@H](C)C(=O)N2CCC[C@H]2C(=O)N2CCC[C@H]2C(=O)N2CCC[C@H]2C(=O)N[C@@H](CO)C(N)=O)C(C)C)CC1 [Compound 0149]
- EC50 (human GIPR): 0.004 nM

SMILES: CC[C@H](C)[C@H](NC(=O)[C@H](CC(C)C)NC(=O)[C@H](Cc1c[nH]c2ccccc12)NC(=O)[C@H](CCC(=O)O)NC(=O)[C@@H](NC(=O)[C@H](Cc1ccccc1)NC(=O)[C@H](CCC(=O)O)NC(=O)C(C)(CC)NC(=O)[C@H](C)NC(=O)[C@H](C)NC(=O)[C@H](CCCCN)NC(=O)[C@H](CCCCNC(=O)COCCOCCNC(=O)COCCOCCNC(=O)CC[C@H](NC(=O)CCCCCCCCCCCCCCCCCCC(=O)O)C(=O)O)NC(=O)[C@H](CCC(=O)O)NC(=O)[C@H](CC(C)C)NC(=O)[C@H](CC(C)C)NC(=O)[C@](C)(CCCCN)NC(=O)[C@H](CO)NC(=O)[C@H](Cc1ccc(O)cc1)NC(=O)[C@H](CC(=O)O)NC(=O)[C@H](CO)NC(=O)[C@@H](NC(=O)[C@H](Cc1ccccc1)NC(=O)[C@@H](NC(=O)CNC(=O)[C@H](Cc1c[nH]cn1)NC(=O)C(C)(C)NC(=O)[C@@H](N)Cc1c[nH]cn1)[C@@H](C)O)[C@@H](C)O)C(C)C)C(=O)N[C@@H](CCC(=O)O)C(=O)NCC(=O)NCC(=O)N1CCC[C@H]1C(=O)N[C@@H](CO)C(=O)N[C@@H](CO)C(=O)NCC(=O)N[C@@H](C)C(=O)N1CCC[C@H]1C(=O)N1CCC[C@H]1C(=O)N1CCC[C@H]1C(=O)N[C@@H](CO)C(N)=O (stereo partly drawn) [Compound 0131] (H-H[Aib]HGTFTSDYS[αMeK]LLEK([AEEA-AEEA-γGlu-C20 diacid])KAA[ξIva]EFVEWLIEGGPSSGAPPPS-NH2)
- AUC(0-inf) [1, 2]: 22.5 µM·h
- C0 [1, 2]: 5.98 µM
- clearance ([1]; mouse, male C57 mice, single intravenous dose 200 nmol/kg, plasma, read-out: CLp): 0.148 mL/min/kg
- half-life ([1]; mouse, male C57 mice, single intravenous dose 200 nmol/kg, plasma, read-out: T1/2 (converted)): 10.2 h

SMILES: CC[C@H](C)[C@H](NC(=O)[C@H](CO)NC(=O)[C@H](Cc1ccc(O)cc1)NC(=O)[C@H](CC(=O)O)NC(=O)[C@H](CO)NC(=O)[C@@H](NC(=O)[C@H](Cc1ccccc1)NC(=O)[C@@H](NC(=O)CNC(=O)[C@H](Cc1c[nH]cn1)NC(=O)C(C)(C)NC(=O)[C@@H](N)Cc1c[nH]cn1)[C@@H](C)O)[C@@H](C)O)C(=O)N[C@@H](CC(C)C)C(=O)N[C@@H](CC(C)C)C(=O)N[C@@H](CCC(=O)O)C(=O)N[C@@H](CCCCNC(=O)COCCOCCNC(=O)COCCOCCNC(=O)CC[C@H](NC(=O)CCCCCCCCCCCCCCCCCCC(=O)O)C(=O)O)C(=O)N[C@@H](CCC(N)=O)C(=O)N[C@@H](C)C(=O)N[C@@H](C)C(=O)NC1(C(=O)N[C@@H](CCC(=O)O)C(=O)N[C@@H](Cc2ccccc2)C(=O)N[C@H](C(=O)N[C@@H](CCC(=O)O)C(=O)N[C@@H](Cc2c[nH]c3ccccc23)C(=O)N[C@@H](CC(C)C)C(=O)N[C@@H](CC(C)C)C(=O)N[C@@H](C)C(=O)N[C@H](CCC(=O)O)C(=O)NCC(=O)N2CCC[C@H]2C(=O)N[C@@H](CO)C(=O)N[C@@H](CO)C(=O)NCC(=O)N[C@@H](C)C(=O)N2CCC[C@H]2C(=O)N2CCC[C@H]2C(=O)N2CCC[C@H]2C(=O)N[C@@H](CO)C(N)=O)C(C)C)CCC1 [Compound 0150]
- EC50 (human GIPR): 0.002 nM

SMILES: CC[C@H](C)[C@H](NC(=O)[C@H](CO)NC(=O)[C@H](CC(C)C)NC(=O)[C@H](CC(=O)O)NC(=O)[C@H](CO)NC(=O)[C@@H](NC(=O)[C@H](Cc1ccccc1)NC(=O)[C@@H](NC(=O)CNC(=O)[C@H](Cc1c[nH]cn1)NC(=O)C(C)(C)NC(=O)[C@@H](N)Cc1c[nH]cn1)[C@@H](C)O)[C@@H](C)O)C(=O)N[C@@H](CC(C)C)C(=O)N[C@@H](CC(C)C)C(=O)N[C@@H](CCC(=O)O)C(=O)N[C@@H](CCCCNC(=O)COCCOCCNC(=O)COCCOCCNC(=O)CC[C@H](NC(=O)CCCCCCCCCCCCCCCCCCC(=O)O)C(=O)O)C(=O)N[C@@H](CCCCN)C(=O)N[C@@H](C)C(=O)N[C@@H](C)C(=O)NC(C)(CC)C(=O)N[C@@H](CCC(=O)O)C(=O)N[C@@H](Cc1ccccc1)C(=O)N[C@H](C(=O)N[C@@H](CCC(=O)O)C(=O)N[C@@H](Cc1c[nH]c2ccccc12)C(=O)N[C@@H](CC(C)C)C(=O)N[C@@H](CC(C)C)C(=O)N[C@@H](C)C(=O)NCC(=O)NCC(=O)N1CCC[C@H]1C(=O)N[C@@H](CO)C(=O)N[C@@H](CO)C(=O)NCC(=O)N[C@@H](C)C(=O)N1CCC[C@H]1C(=O)N1CCC[C@H]1C(=O)N1CCC[C@H]1C(=O)N[C@@H](CO)C(N)=O)C(C)C (stereo partly drawn) [Compound 0136]
- EC50 (human GIPR): 0.001 nM

SMILES: CC[C@H](C)[C@H](NC(=O)[C@H](CO)NC(=O)[C@H](CC(C)C)NC(=O)[C@H](CC(=O)O)NC(=O)[C@H](CO)NC(=O)[C@@H](NC(=O)[C@H](Cc1ccccc1)NC(=O)[C@@H](NC(=O)CNC(=O)[C@H](Cc1c[nH]cn1)NC(=O)C(C)(C)NC(=O)[C@@H](N)Cc1c[nH]cn1)[C@@H](C)O)[C@@H](C)O)C(=O)N[C@@](C)(CC(C)C)C(=O)N[C@@H](CC(C)C)C(=O)N[C@@H](CCC(=O)O)C(=O)N[C@@H](CCCCNC(=O)COCCOCCNC(=O)COCCOCCNC(=O)CC[C@H](NC(=O)CCCCCCCCCCCCCCCCCCC(=O)O)C(=O)O)C(=O)N[C@@H](CCCCN)C(=O)N[C@@H](C)C(=O)N[C@@H](C)C(=O)NC1(C(=O)N[C@@H](CCC(=O)O)C(=O)N[C@@H](Cc2ccccc2)C(=O)N[C@H](C(=O)N[C@@H](CCC(=O)O)C(=O)N[C@@H](Cc2c[nH]c3ccccc23)C(=O)N[C@@H](CC(C)C)C(=O)N[C@@H](CC(C)C)C(=O)N[C@@H](C)C(=O)NCC(=O)NCC(=O)N2CCC[C@H]2C(=O)N[C@@H](CO)C(=O)N[C@@H](CO)C(=O)NCC(=O)N[C@@H](C)C(=O)N2CCC[C@H]2C(=O)N2CCC[C@H]2C(=O)N2CCC[C@H]2C(=O)N[C@@H](CO)C(N)=O)C(C)C)CCC1 [Compound 0140]
- clearance ([1]; male, C57, mouse, iv): 0.115 mL/min/kg
- half-life ([1]; male, C57, mouse, iv): 9.3 h
